Key:
Type in all cases: in vivo
Solanum nigrum (SOLNI) [1] = experiment: Pre-emergence biological efficacy, glasshouse, 1000 g/ha, evaluated after 13 days (100=total damage to plant; 0=no damage to plant); conditions: Solanum nigrum, 312 h, rate 1,000 g/ha, read-out: Percentage damage caused to weed species, pre-emergence, SOLNI
Method in brief: (§1)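 Test species are sown into pots of standard soil. Plants then grow in the glasshouse under controlled conditions (24/16° C. day/night, 14 hours light, 65% humidity) and receive water twice a day.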

Setaria faberi (SETFA) [2] = experiment: as above; conditions: Setaria faberi, 312 h, rate 1,000 g/ha, read-out: Percentage damage caused to weed species, pre-emergence, SETFA
Method in brief: as §1

[3] = tested on: Amaranthus retroflexus (AMARE); experiment: as above; conditions: Amaranthus retroflexus, 312 h, rate 1,000 g/ha, read-out: Percentage damage caused to weed species, pre-emergence, AMARE
Method in brief: as §1

[4] = tested on: Alopecurus myosuroides (ALOMY); experiment: as above; conditions: Alopecurus myosuroides, 312 h, rate 1,000 g/ha, read-out: Percentage damage caused to weed species, pre-emergence, ALOMY
Method in brief: as §1

[5] = tested on: Echinochloa crus-galli (ECHCG); experiment: as above; conditions: Echinochloa crus-galli, 312 h, rate 1,000 g/ha, read-out: Percentage damage caused to weed species, pre-emergence, ECHCG
Method in brief: as §1

[6] = tested on: Ipomoea hederaceae (IPOHE); experiment: as above; conditions: Ipomoea, 312 h, rate 1,000 g/ha, read-out: Percentage damage caused to weed species, pre-emergence, IPOHE
Method in brief: as §1

Solanum nigrum (SOLNI) [7] = experiment: Post-emergence biological efficacy, glasshouse, 500 or 1000 g/ha, evaluated after 13 days (100=total damage to plant; 0=no damage to plant); conditions: Solanum nigrum, 312 h, rate 1,000 g/ha, read-out: Percentage damage caused to weed species, post-emergence, SOLNI
Method in brief: (§2)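 Standard soil, potted from seed; post-emergence treatment; glasshouse 24/16° C. (day/night), 14 h light, 65% humidity; watering twice daily.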

Setaria faberi (SETFA) [8] = experiment: as above; conditions: Setaria faberi, 312 h, rate 1,000 g/ha, read-out: Percentage damage caused to weed species, post-emergence, SETFA
Method in brief: as §2

[9] = tested on: Echinochloa crusgaffi (ECHCG); experiment: as above; conditions: Echinochloa, 312 h, rate 1,000 g/ha, read-out: Percentage damage caused to weed species, post-emergence, ECHCG
Method in brief: as §2

[10] = tested on: Amaranthus retroflexus (AMARE); experiment: as above; conditions: Amaranthus retroflexus, 312 h, rate 1,000 g/ha, read-out: Percentage damage caused to weed species, post-emergence, AMARE
Method in brief: as §2

[11] = tested on: Alopecurus myosuroides (ALOMY); experiment: as above; conditions: Alopecurus myosuroides, 312 h, rate 1,000 g/ha, read-out: Percentage damage caused to weed species, post-emergence, ALOMY
Method in brief: as §2

[12] = tested on: Ipomoea hederaceae (IPOHE); experiment: as above; conditions: Ipomoea, 312 h, rate 1,000 g/ha, read-out: Percentage damage caused to weed species, post-emergence, IPOHE
Method in brief: as §2

For `COc1c(Cl)ccc(-c2cc3[nH]cc(C)c3c(C(=O)OCc3ccco3)n2)c1F` [Compound 22-87, 6-(4-Chloro-2-fluoro-3-methoxyphenyl)-4-(2-furanyl-methoxycarbonyl)-3-methyl-1H-pyrrolo[3,2-c]pyridine], the pest or weed control at 1000 g/ha (Solanum nigrum (SOLNI) [1]) was 70%, the pest or weed control at 1000 g/ha (Setaria faberi (SETFA) [2]) was 10% and the pest or weed control at 1000 g/ha [3] was 20%. It also gave a pest or weed control at 1000 g/ha [4] of 10%, a pest or weed control at 1000 g/ha [5] of 10% and a pest or weed control at 1000 g/ha [6] of 80%. The pest or weed control at 1000 g/ha (Solanum nigrum (SOLNI) [7]) was 90%, the pest or weed control at 1000 g/ha (Setaria faberi (SETFA) [8]) was 40% and the pest or weed control at 1000 g/ha [9] was 10%. It also gave a pest or weed control at 1000 g/ha [10] of 80%, a pest or weed control at 1000 g/ha [11] of 20% and a pest or weed control at 1000 g/ha [12] of 70%.
For `COc1c(Cl)ccc(-c2nc(C(=O)O)c3cc(C)n(Cc4ccccc4[N+](=O)[O-])c3n2)c1F` [Compound 8-65, 4-Carboxy-2-(4-chloro-2-fluoro-3-methoxyphenyl)-6-methyl-7-(2-nitrophenyl-methyl)-7H-pyrrolo[2,3-d]pyrimidine], the pest or weed control at 1000 g/ha (Solanum nigrum (SOLNI) [1]) was 0%, the pest or weed control at 1000 g/ha (Setaria faberi (SETFA) [2]) was 0% and the pest or weed control at 1000 g/ha [3] was 0%. It also gave a pest or weed control at 1000 g/ha [4] of 0%, a pest or weed control at 1000 g/ha [5] of 0% and a pest or weed control at 1000 g/ha [6] of 0%. It also gave a pest or weed control at 1000 g/ha (Solanum nigrum (SOLNI) [7]) of 10%, a pest or weed control at 1000 g/ha (Setaria faberi (SETFA) [8]) of 20% and a pest or weed control at 1000 g/ha [9] of 0%. It also gave a pest or weed control at 1000 g/ha [10] of 0%, a pest or weed control at 1000 g/ha [11] of 0% and a pest or weed control at 1000 g/ha [12] of 10%.
`COc1c(Cl)ccc(-c2nc(C(=O)OCC3CCCO3)c3c(C)c[nH]c3n2)c1F` (stereo not drawn) [Compound 1-88, 2-(4-Chloro-2-fluoro-3-methoxyphenyl)-5-methyl-4-(tetrahydrofuran-2-yl-methoxycarbonyl)-7H-pyrrolo[2,3-d]pyrimidine] showed a pest or weed control at 1000 g/ha (Solanum nigrum (SOLNI) [1]) of 20%, a pest or weed control at 1000 g/ha (Setaria faberi (SETFA) [2]) of 0% and a pest or weed control at 1000 g/ha [3] of 10%. For the same compound, the pest or weed control at 1000 g/ha [4] was 0%, the pest or weed control at 1000 g/ha [5] was 10% and the pest or weed control at 1000 g/ha [6] was 10%. For the same compound, the pest or weed control at 1000 g/ha (Solanum nigrum (SOLNI) [7]) was 70%, the pest or weed control at 1000 g/ha (Setaria faberi (SETFA) [8]) was 40% and the pest or weed control at 1000 g/ha [9] was 10%. It also gave a pest or weed control at 1000 g/ha [10] of 50%, a pest or weed control at 1000 g/ha [11] of 10% and a pest or weed control at 1000 g/ha [12] of 50%.
`COC(=O)c1nc(-c2ccc(Cl)c(OC)c2F)nc2[nH]c(C)c(C)c12` [Compound 1-68, 2-(4-Chloro-2-fluoro-3-methoxyphenyl)-5,6-dimethyl-4-methoxycarbonyl-7H-pyrrolo[2,3-d]pyrimidine] gave a pest or weed control at 1000 g/ha (Solanum nigrum (SOLNI) [1]) of 0%, a pest or weed control at 1000 g/ha (Setaria faberi (SETFA) [2]) of 0% and a pest or weed control at 1000 g/ha [3] of 0%. For the same compound, the pest or weed control at 1000 g/ha [4] was 0%, the pest or weed control at 1000 g/ha [5] was 0% and the pest or weed control at 1000 g/ha [6] was 0%. The pest or weed control at 1000 g/ha (Solanum nigrum (SOLNI) [7]) was 30%, the pest or weed control at 1000 g/ha (Setaria faberi (SETFA) [8]) was 0% and the pest or weed control at 1000 g/ha [9] was 10%. It also gave a pest or weed control at 1000 g/ha [10] of 10%, a pest or weed control at 1000 g/ha [11] of 0% and a pest or weed control at 1000 g/ha [12] of 60%.
With `COC(=O)c1nc(-c2ccc(Cl)c(OC)c2F)nc2c1Nc1ccccc1N2` [Compound 119-168, 2-(4-chloro-2-fluoro-3-methoxyphenyl)-4-methoxycarbonyl-5,10-dihydro-benzo[g]pteridine] the pest or weed control at 1000 g/ha (Solanum nigrum (SOLNI) [1]) was 0%, the pest or weed control at 1000 g/ha (Setaria faberi (SETFA) [2]) was 0% and the pest or weed control at 1000 g/ha [3] was 0%. For the same compound, the pest or weed control at 1000 g/ha [4] was 0%, the pest or weed control at 1000 g/ha [5] was 0% and the pest or weed control at 1000 g/ha [6] was 0%. It also gave a pest or weed control at 1000 g/ha (Solanum nigrum (SOLNI) [7]) of 30%, a pest or weed control at 1000 g/ha (Setaria faberi (SETFA) [8]) of 0% and a pest or weed control at 1000 g/ha [9] of 0%. It also gave a pest or weed control at 1000 g/ha [10] of 10%, a pest or weed control at 1000 g/ha [11] of 0% and a pest or weed control at 1000 g/ha [12] of 40%.
`COC(=O)c1nc(-c2ccc(Cl)c(F)c2)nc2c1ccn2Cc1ccccc1` [Compound 6-18, 2-(4-Chloro-3-fluorophenyl)-4-methoxycarbonyl-7-phenylmethyl-7H-pyrrolo[2,3-d]pyrimidine] showed a pest or weed control at 1000 g/ha (Solanum nigrum (SOLNI) [1]) of 0%, a pest or weed control at 1000 g/ha (Setaria faberi (SETFA) [2]) of 0% and a pest or weed control at 1000 g/ha [3] of 0%. The pest or weed control at 1000 g/ha [4] was 0%, the pest or weed control at 1000 g/ha [5] was 0% and the pest or weed control at 1000 g/ha [6] was 0%. It also gave a pest or weed control at 1000 g/ha (Solanum nigrum (SOLNI) [7]) of 40%, a pest or weed control at 1000 g/ha (Setaria faberi (SETFA) [8]) of 0% and a pest or weed control at 1000 g/ha [9] of 0%. For the same compound, the pest or weed control at 1000 g/ha [10] was 0%, the pest or weed control at 1000 g/ha [11] was 0% and the pest or weed control at 1000 g/ha [12] was 20%.

From US20120202690A1, “HERBICIDAL COMPOUNDS” (SYNGENTA LIMITED, priority 2009, published 2012)
